In brackets after ≈: the same amount, converted by molar mass. Entries after “also recorded” stand apart in the source; their conditions may differ. Non-standard residues stand in square brackets, D forms with d. Residues, ends and D or L forms follow the SMILES beside them. Nle = CCCC[C@H](N)C(=O)O; βAla = NCCC(=O)O
Experiments:
[1] = target: T1, human NK2 receptor (hNK2R) (Homo sapiens, UniProt P21452); assay: Intracellular calcium mobilization (Fluo-4 AM, FLIPR) in CHO cells expressing recombinant hNK2R; type: cell-based; details: for EC50: calcium mobilization, CHO-hNK2 cells, agonist potency, read-out: hNK2R pEC50 (converted); for selectivity for activation of hNK2Rs vs hNK1Rs: from ratios of EC50s
T1 construct: expressed in transfected cells; host or cells: CHO (CHO-hNK2)
T1 sequence (P21452 1-398): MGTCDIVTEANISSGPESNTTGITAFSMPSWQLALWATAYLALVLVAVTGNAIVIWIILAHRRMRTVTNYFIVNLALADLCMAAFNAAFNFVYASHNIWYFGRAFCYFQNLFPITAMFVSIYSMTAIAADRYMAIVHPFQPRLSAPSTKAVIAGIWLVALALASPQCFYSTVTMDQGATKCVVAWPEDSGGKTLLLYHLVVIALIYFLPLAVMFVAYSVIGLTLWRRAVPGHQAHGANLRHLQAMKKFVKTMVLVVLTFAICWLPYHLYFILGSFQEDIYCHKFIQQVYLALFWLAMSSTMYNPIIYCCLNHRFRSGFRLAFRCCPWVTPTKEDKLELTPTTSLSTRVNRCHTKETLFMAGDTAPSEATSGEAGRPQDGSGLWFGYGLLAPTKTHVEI
Experimental: (§1) Intracellular Calcium Mobilization: The agonist efficacy of compounds A-J at recombinant hNK2R or hNK1Rs expressed in CHO cells was assessed by measuring intracellular calcium mobilization using the calcium-sensitive dye Fluo-4 AM (MOLECULAR PROBES, EUGENE, OR, USA) and a Fluorometric Imaging Plate Reader (FLIPR, MOLECULAR DEVICES, CA, USA). CHO-hNK1 and CHO-hNK2 cells were seeded into black walled clear-bottom 384-well plates) at a density of 10,000 and 15,000 cells per well in 50 μL culture media, respectively, and grown overnight at 37° C. in a humidified CO2-incubator. Cells were washed in washing buffer using a Microplate Washer BIOTEK 384 instrument, leaving 20 μL of buffer per well after the final aspiration. Cells were then incubated at 37° C. with the cytoplasmic Ca^2+ indicator Fluo-4 AM at 2 μM in assay buffer containing 2.5 mM probenecid and 0.02% Pluronic F-127 for 45-60 min (cell loading). Cells were then washed 3 times in washing buffer using a Microplate Washer BIOTEK 384 instrument, leaving 30 μL of buffer in each well after the last wash. Loaded cell plates were transferred to the FLIPR Tetra instrument and calcium responses monitored as described below. A dual read-out FLIPR protocol was used, allowing for characterization of both agonist and antagonist profiles. For quality control, in each compound plate the signal was monitored by evaluating the responses to the reference standards (NKA and Substance P).
(§2) Twelve concentrations of each of the compounds A-J were evaluated for their ability to increase intracellular calcium levels with respect to the agonist reference standard (NKA or Substance P), and the pEC50 value was calculated. […] Concentration response curves of compounds were run in duplicate on two different occasions from the same stock solutions. Test solutions were prepared from 10 mM stock solutions in DMSO and 1 μL of each solution was stamped into V-bottom assay plates containing 49 μL assay buffer. The final concentration of DMSO was 0.5% in each well.
(§3) The results of the intracellular calcium mobilization by in vitro activation of recombinant hNK2Rs or hNK1Rs expressed in CHO cells as described above for the 10 peptide analogs A-J, is shown in Table 3 below. In addition, FIGS. 3A-3C are exemplary graphs showing stimulation of [Ca^2+] response in CHO cells expressing human NK2 or NK1 receptors by Compound A, Compound B, and Compound G, respectively. In FIGS. 3A-3C, data are expressed as % of the maximal response to substance P for NK1 receptors, or NKA for NK2 receptors. Each data point is the mean±SD from duplicate determinations.

[2] = target: T2, human NK1 receptor (hNK1R) (Homo sapiens, UniProt P25103); assay: Intracellular calcium mobilization (Fluo-4 AM, FLIPR) in CHO cells expressing recombinant hNK1R; type: cell-based; details: for EC50: calcium mobilization, CHO-hNK1 cells, agonist potency, read-out: hNK1R pEC50 (converted); for Emax: CHO, calcium response, CHO cells, full or partial agonists, read-out: maximal response at hNK1R compared to Substance P
T2 construct: expressed in transfected cells; host or cells: CHO (CHO-hNK1)
Experimental: as §1, §2, §3

[3] = Aqueous solubility of lyophilized peptide analogs (observed dissolution in Dulbecco's phosphate buffered saline and water); type: physicochemical; details: observed dissolution in both Dulbecco's phosphate buffered saline and water; 5 mg/mL was the maximum tested
Experimental: Peptide analogs of NKA were purified to ≥95% purity. […] Compounds A, B, H, and J (SEQ ID NO: 1, 2, 8, and 10) were considered to be aqueous insoluble (<0.1 mg/mL). *Aqueous solubilities of the lyophilized peptide analogs were determined based on the observed dissolution in both Dulbecco's phosphate buffered saline and water. gc=Gly-(R-gamma-lactam)-Leu or (S)-2-((R)-3-amino)-2-oxopyrrolidin-1-yl)-4-methylpantanoyl.

[4] = tested at concentrations up to 10 μM

T2 sequence (P25103 whole entry): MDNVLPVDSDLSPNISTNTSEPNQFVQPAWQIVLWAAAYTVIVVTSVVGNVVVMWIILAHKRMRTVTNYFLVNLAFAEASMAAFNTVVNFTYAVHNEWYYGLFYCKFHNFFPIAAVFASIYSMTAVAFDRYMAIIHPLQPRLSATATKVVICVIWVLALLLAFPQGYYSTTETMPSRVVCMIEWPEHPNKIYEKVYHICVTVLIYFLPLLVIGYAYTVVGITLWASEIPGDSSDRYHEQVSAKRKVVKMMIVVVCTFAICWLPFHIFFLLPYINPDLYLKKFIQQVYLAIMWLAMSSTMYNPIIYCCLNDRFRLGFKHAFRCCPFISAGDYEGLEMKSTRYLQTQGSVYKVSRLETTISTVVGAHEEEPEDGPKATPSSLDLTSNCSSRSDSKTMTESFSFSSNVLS

SMILES	EC50 [1]	selectivity for activation of hNK2Rs vs hNK1Rs [1]	EC50 [2]	solubility [3]	Emax [2]	Aqueous solubility [3]	Emax ([1]; calcium response, CHO cells, full agonists, read-out: maximal response at hNK2R compared to Neurokinin A)	calcium response at hNK2R [1, 4]	calcium response at hNK1R [2, 4]
CSCC[C@H](NC(=O)[C@H](CC(C)C)NC(=O)CCNC(=O)[C@@H](NC(=O)[C@H](Cc1ccccc1)NC(=O)[C@H](CO)NC(=O)[C@H](CC(=O)O)NC(=O)[C@@H](N)CCCCN)C(C)C)C(N)=O [I, Lys-Asp-Ser-Phe-Val-(β-Ala)-Leu-Met-NH2] (H-KDSFV[βAla]LM-NH2; N-terminus assumed)	> 10000 nM	did not exhibit selectivity for hNK2Rs; also recorded: do not exhibit selectivity for hNK2Rs	> 10000 nM	≥ 5000 µg/mL	–	–	–	did not elicit a significant calcium response; also recorded: do not elicit a significant calcium response	did not elicit a significant calcium response; also recorded: do not elicit a significant calcium response
CCCC[C@H](NC(=O)[C@H](CC(C)C)N1CC[C@@H](NC(=O)[C@@H](NC(=O)[C@H](Cc2ccccc2)NC(=O)[C@H](CCCNC(=N)N)NC(=O)[C@@H](N)CC(=O)O)C(C)C)C1=O)C(N)=O [Compound F, Asp-Arg-Phe-Val-gc-Nle-NH2]	2.51 nM	–	234 nM	5000 µg/mL (≈ 5.92 mM)	–	–	–	–	–
CSCC[C@H](NC(=O)[C@H](CC(C)C)N1CC[C@@H](NC(=O)[C@@H](NC(=O)[C@H](Cc2ccccc2)NC(=O)[C@H](CCCNC(=N)N)NC(=O)[C@@H](N)CC(=O)O)C(C)C)C1=O)C(N)=O [Compound E, Asp-Arg-Phe-Val-gc-Met-NH2]	0.195 nM	–	17.4 nM	5000 µg/mL (≈ 5.8 mM)	–	–	–	–	–
CCCC[C@H](NC(=O)[C@H](CC(C)C)N1CC[C@@H](NC(=O)[C@@H](NC(=O)[C@H](Cc2ccccc2)NC(=O)[C@H](CO)NC(=O)[C@@H](N)CC(=O)O)C(C)C)C1=O)C(N)=O [Compound B, Asp-Ser-Phe-Val-gc-Nle-NH2]	8.51 nM	–	1780 nM	< 100 µg/mL	≥ 73%	<100 µg/mL	–	–	–

Continued, in another order:

EC50 [1]	selectivity for activation of hNK2Rs vs hNK1Rs [1]	EC50 [2]	solubility [3]	Emax [2]	Aqueous solubility [3]	Emax ([1]; calcium response, CHO cells, full agonists, read-out: maximal response at hNK2R compared to Neurokinin A)	SMILES	calcium response at hNK2R [1, 4]	calcium response at hNK1R [2, 4]
0.676 nM	> 700 fold	490 nM	< 100 µg/mL	≥ 85%	<100 µg/mL	–	CSCC[C@H](NC(=O)[C@H](CC(C)C)N1CC[C@@H](NC(=O)[C@@H](NC(=O)[C@H](Cc2ccccc2)NC(=O)[C@H](CO)NC(=O)[C@@H](N)CC(=O)O)C(C)C)C1=O)C(N)=O [Compound A, Asp-Ser-Phe-Val-gc-Met-NH2]	–	–
13.2 nM	> 20 fold	302 nM	< 100 µg/mL	≥ 85%	<100 µg/mL	≥ 85%	CCCC[C@H](NC(=O)[C@H](CC(C)C)NC(=O)CCNC(=O)[C@@H](NC(=O)[C@H](Cc1ccccc1)NC(=O)[C@H](CO)NC(=O)[C@H](CC(=O)O)NC(=O)[C@@H](N)CCCCN)C(C)C)C(N)=O [Compound J, Lys-Asp-Ser-Phe-Val-(β-Ala)-Leu-Nle-NH2] (H-KDSFV[βAla]L[Nle]-NH2; N-terminus assumed)	–	–
7.76 nM	–	1620 nM	5000 µg/mL (≈ 5.54 mM)	≥ 73%	–	–	CCCC[C@H](NC(=O)[C@H](CC(C)C)N1CC[C@@H](NC(=O)[C@@H](NC(=O)[C@H](Cc2ccccc2)NC(=O)[C@H](CO)NC(=O)[C@H](CC(=O)O)NC(=O)[C@@H](N)CCCCN)C(C)C)C1=O)C(N)=O [Compound G, Lys-Asp-Ser-Phe-Val-gc-Nle-NH2]	–	–

Reference: patent US20230374071A1, “COMPOSITIONS FOR INDUCING URINARY VOIDING AND DEFECATION” (Dignify Therapeutics, LLC, priority 2020, published 2023)
